The target of this assay is T1, recombinant autotaxin (Homo sapiens, UniProt Q13822).
T1 construct: made in house; host or cells: Hi5 insect cells (baculovirus)
As to the kind of experiment: Autotaxin assay (Amplex Red fluorescence, LPC substrate). Type of assay: biochemical. Particulars: for IC50: ten serial 1:3 dilutions starting at 30 μM, duplicates, 75 μM LPC, values given as upper bounds. How it is done: Autotaxin activity is measured indirectly by means of Amplex Red Reagent. In this course, Amplex Red is measured as fluorogenic indicator for generated H2O2. Autotaxin converts substrate lysophosphatidylcholine (LPC) to phosphocholine and lysophosphatidylic acid (LPA). After the conversion phosphocholine is reacted with alkaline phosphatase to obtain inorganic phosphate and choline. During the next step choline is oxidized with choline oxidase to yield betaine, whereby H2O2 is generated. H2O2 reacts with Amplex Red Reagent in the presence of peroxidase (Horseradish peroxidase) in an 1:1 stochiometry and yields highly fluorescent resorufin. The generated fluorescence is measured in a reaction-dependent kinetic mode in order to enable subtraction of fluorescence signals of possible other fluorescent compounds that are not part of the reaction from total measured fluorescence.
1.5 μl of a standard solution or of the compounds of the invention are dissolved in 20 mM Hepes pH 7.2 with maximally 7.7% DMSO in individual concentrations. The resulting solution is pre-incubated together with 10 μl (16 ng) of highly purified recombinant autotaxin in a black 384-hole microtiter plate for 30 min at 22° C.
Thereafter, the reaction is started through the addition of 5 μl L-a-lysophosphatidyl-choline (LPC), whereby the final concentration of LPC is 75 μM. The mixture is incubated for 90 min. at 37° C. After the incubation Amplex Red Reagent, peroxidase (Horseradish peroxidase) and choline oxidase are added. The fluorescence is immediately measured at a wavelength of 612 nm with an excitation wavelength of 485 nm in a “Tecan Ultra multimode” fluorescence reader. The activity of autotaxin is indirectly calculated via the amount of detected generated H2O2.
For IC50 analysis, ten serial 1:3 dilutions starting at 30 μM for each compound were run in duplicates.
IC50 values were calculated on normalized data. For normalization, control wells were added to each assay plate and the signal of uninhibited control wells was set to 100%, whereas the signal inhibited by 500 μM C14 LPA, (Avanti Polar Lipids, Cat#857120P) was set to 0%. Curves were fitted and IC50 values calculated by the following model using proprietory analysis software: Y=Bottom+(100−Bottom)/(1+10^((Log IC50−X)*HillSlope))
Where X is the logarithm of concentration. Y is the response;
Y starts at Bottom and goes to Top with a sigmoid shape.
Protein: Recombinant autotaxin (baculoviral Hi5 expression)
Substrate: L-a-lysophosphatidyl choline (chicken egg); Avanti Polar Lipids #830071P
Standard: C14 LPA, Avanti Polar Lipids, Cat#857120P
Detection Reagent Amplex Red Reagent; Invitrogen #A12222; dissolved in 1.923 ml of DMSO peroxidase Type VI-A (horseradish), Sigma #P6782; dissolved in 7.45 ml of test buffer, Choline Oxidase; Sigma #C5896; dissolved in 2.47 ml test buffer
Detection Reagent Mix: 1:100 dilution of Amplex Red Regent in test buffer
Test buffer: 200 mM Tris-HCl, Merck, Cat #1.08219, pH 7.9; 0.1% BSA, lipid free, Roche Cat#775835

As usually defined, the IC50 is the concentration needed to halve the response being measured.

On to `O=C(NCCc1ccc(Br)cc1)c1[nH]nc2c1CCN(C(=O)c1ccc3[nH]nnc3c1)C2` [Compound 44, 6-(1H-Benzotriazole-5-carbonyl)-4,5,6,7-tetrahydro-2H-pyrazolo[3,4-c]pyridine-3-carboxylic acid [2-(4-bromo-phenyl)-ethyl]-amide], for which the IC50 is under 10 µM.
On to `COc1ccc(Cl)cc1CNC(=O)c1[nH]nc2c1CCN(C(=O)c1ccc3[nH]nnc3c1)C2` [Compound 45, 6-(1H-Benzotriazole-5-carbonyl)-4,5,6,7-tetrahydro-2H-pyrazolo[3,4-c]pyridine-3-carboxylic acid 5-chloro-2-methoxy-benzylamide], for which the IC50 was under 10 µM.
In the case of `O=C(NCc1ccc(Cl)cc1F)c1[nH]nc2c1CCN(C(=O)c1ccc3[nH]nnc3c1)C2` [Compound 46, 6-(1H-Benzotriazole-5-carbonyl)-4,5,6,7-tetrahydro-2H-pyrazolo[3,4-c]pyridine-3-carboxylic acid 4-chloro-2-fluoro-benzylamide], the “% CTRL (1E−05)” value (percent of uninhibited control (100%) at 1E−05 M compound) worked out at 76%.
Consider `O=C(NCCc1ccc(F)cc1)c1[nH]nc2c1CCN(C(=O)c1ccc3[nH]nnc3c1)C2` [Compound 47, 6-(1H-Benzotriazole-5-carbonyl)-4,5,6,7-tetrahydro-2H-pyrazolo[3,4-c]pyridine-3-carboxylic acid [2-(4-fluoro-phenyl)-ethyl]-amide], for which the IC50 is under 10 µM.
In the case of `O=C(Nc1ccc2c(c1)CCN(C(=O)c1ccc3[nH]nnc3c1)C2)OCc1cc(Cl)cc(Cl)c1` [Compound 48, [2-(1H-Benzotriazole-5-carbonyl)-1,2,3,4-tetrahydro-isoquinolin-6-yl]-carbamic acid 3,5-dichloro-benzyl ester], the IC50 was under 10 µM.
On the same count and under the same terms, with `O=C(NCc1ccc(SC(F)(F)F)cc1)c1[nH]nc2c1CCN(C(=O)c1ccc3[nH]nnc3c1)C2` [Compound 49, 6-(1H-Benzotriazole-5-carbonyl)-4,5,6,7-tetrahydro-2H-pyrazolo[3,4-c]pyridine-3-carboxylic acid 4-trifluoromethylsulfanyl-benzylamide] the figure was under 30 µM; with `O=C(Nc1ccc2[nH]nnc2c1)c1n[nH]c2c1CCN(C(=O)OCc1ccc(C(F)(F)F)cc1)C2` [Compound 50, 3-(1H-Benzotriazol-5-ylcarbamoyl)-1,4,5,7-tetrahydro-pyrazolo[3,4-c]pyridine-6-carboxylic acid 4-trifluoromethyl-benzyl ester], under 1 µM.
With `O=C(NCc1ccc(F)c(Br)c1)c1[nH]nc2c1CCN(C(=O)c1ccc3[nH]nnc3c1)C2` [Compound 51, 6-(1H-Benzotriazole-5-carbonyl)-4,5,6,7-tetrahydro-2H-pyrazolo[3,4-c]pyridine-3-carboxylic acid 3-bromo-4-fluoro-benzylamide], the IC50 was under 1 µM.
Still for that read-out and setting: with `O=C(Nc1ccc2[nH]nnc2c1)c1[nH]nc2c1CCN(C(=O)OCc1cc(Cl)cc(Cl)c1)C2` [Compound 52, 3-(1H-Benzotriazol-5-ylcarbamoyl)-2,4,5,7-tetrahydro-pyrazolo[3,4-c]pyridine-6-carboxylic acid 3,5-dichloro-benzyl ester] the figure was under 1 µM; with `O=C(Nc1ccc2[nH]nnc2c1)c1[nH]nc2c1CCN(C(=O)OCc1cc(C(F)(F)F)cc(C(F)(F)F)c1)C2` [Compound 53, 3-(1H-Benzotriazol-5-ylcarbamoyl)-2,4,5,7-tetrahydro-pyrazolo[3,4-c]pyridine-6-carboxylic acid 3,5-bis-trifluoromethyl-benzyl ester], under 1 µM.
Same read-out and setting: as for `O=C(Nc1ccc2[nH]nnc2c1)c1[nH]nc2c1CCN(C(=O)OCc1ccc(C(F)(F)F)c(Cl)c1)C2` [Compound 54, 3-(1H-Benzotriazol-5-ylcarbamoyl)-2,4,5,7-tetrahydro-pyrazolo[3,4-c]pyridine-6-carboxylic acid 3-chloro-4-trifluoromethyl-benzyl ester], the figure is under 10 µM; as for `O=C(Nc1ccc2[nH]nnc2c1)c1[nH]nc2c1CCN(C(=O)OCc1cccc(C(F)(F)F)c1)C2` [Compound 55, 3-(1H-Benzotriazol-5-ylcarbamoyl)-2,4,5,7-tetrahydro-pyrazolo[3,4-c]pyridine-6-carboxylic acid 3-trifluoromethyl-benzyl ester], under 1 µM.
For `O=C(Nc1ccc2[nH]nnc2c1)c1[nH]nc2c1CCN(C(=O)OCc1ccc(SC(F)(F)F)cc1)C2` [Compound 56, 3-(1H-Benzotriazol-5-ylcarbamoyl)-2,4,5,7-tetrahydro-pyrazolo[3,4-c]pyridine-6-carboxylic acid 4-trifluoromethylsulfanyl-benzyl ester], the IC50 is under 1 µM.
As to `O=C(Nc1ccc2[nH]nnc2c1)c1[nH]nc2c1CCN(C(=O)OCc1ccc(OC(F)(F)F)cc1)C2` [Compound 57, 3-(1H-Benzotriazol-5-ylcarbamoyl)-2,4,5,7-tetrahydro-pyrazolo[3,4-c]pyridine-6-carboxylic acid 4-trifluoromethoxy-benzyl ester], the IC50 is under 10 µM.
On the same count and under the same terms, with `O=C(Nc1ccc2[nH]nnc2c1)c1[nH]nc2c1CCN(C(=O)OCc1ccc(OC(F)(F)F)c(Cl)c1)C2` [Compound 58, 3-(1H-Benzotriazol-5-ylcarbamoyl)-2,4,5,7-tetrahydro-pyrazolo[3,4-c]pyridine-6-carboxylic acid 3-chloro-4-trifluoromethoxy-benzyl ester] the figure was under 1 µM; with `COc1ccc(C2CCCN(C(=O)c3[nH]nc4c3CCN(C(=O)c3ccc5[nH]nnc5c3)C4)C2)cc1` (centres unmarked) [Compound 59, (1H-Benzotriazol-5-yl)-{3-[3-(4-methoxy-phenyl)-piperidine-1-carbonyl]-2,4,5,7-tetrahydro-pyrazolo[3,4-c]pyridin-6-yl}-methanone], under 30 µM; with `O=C(NCc1ccc(OC(F)(F)F)cc1)c1[nH]nc2c1CCN(C(=O)c1ccc3[nH]nnc3c1)C2` [Compound 60, 6-(1H-Benzotriazole-5-carbonyl)-4,5,6,7-tetrahydro-2H-pyrazolo[3,4-c]pyridine-3-carboxylic acid 4-trifluoromethoxy-benzylamide], under 30 µM.
As for `O=C(NCc1ccc(C(F)(F)F)cc1)c1[nH]nc2c1CCN(C(=O)c1ccc3[nH]nnc3c1)C2` [Compound 61, 6-(1H-Benzotriazole-5-carbonyl)-4,5,6,7-tetrahydro-2H-pyrazolo[3,4-c]pyridine-3-carboxylic acid 4-trifluoromethyl-benzylamide], the half-maximal inhibitory concentration (IC50) was under 10 µM.
As to `COc1ccc2c(c1)CCC(NC(=O)c1[nH]nc3c1CCN(C(=O)c1ccc4[nH]nnc4c1)C3)C2` (centres unmarked) [Compound 62, 6-(1H-Benzotriazole-5-carbonyl)-4,5,6,7-tetrahydro-2H-pyrazolo[3,4-c]pyridine-3-carboxylic acid (6-methoxy-1,2,3,4-tetrahydro-naphthalen-2-yl)-amide], the IC50 was under 10 µM.
Same read-out and setting: as for `COC(=O)CC(NC(=O)c1[nH]nc2c1CCN(C(=O)c1ccc3[nH]nnc3c1)C2)c1ccc(C(C)(C)C)cc1` (centres unmarked) [Compound 63, 3-{[6-(1H-Benzotriazole-5-carbonyl)-4,5,6,7-tetrahydro-2H-pyrazolo[3,4-c]pyridine-3-carbonyl]-amino}-3-(4-tert-butyl-phenyl)-propionic acid methyl ester], the figure is under 30 µM.

The record behind these values is patent publication US8497283B2, “Autotaxin inhibitors” (Merck Patent GmbH, priority 2009, dated 2013).
